Experimental data as given in patent EP4023291A1, “FAT METABOLISM PROMOTER” (Asahi Group Holdings, Ltd., priority 2019, dated 2021).

Legend:
3T3-L1 cells = assay: Test 4: lipolysis test, glycerol released into culture supernatant of differentiated adipocytes; assay type: cell-based, Mouse; settings: for amount of released glycerol, comparison with control: against Comparative Example 4 (0.1% ethanol), one-way ANOVA, Dunnett's test; for control ratio: amount of glycerol relative to medium of Comparative Example 4, Average: culture 2 days, 0.1% ethanol, 0.1 µM noradrenaline, ethyl caproate 0/0.1/1/10 ppm in Comparative Example 5/Examples 6/7/8
Method: In the present test, the lipolysis-promoting effect of the promoter of the present embodiment was tested by quantifying glycerol released into culture supernatant through decomposition of fat accumulated in adipocytes. Mouse embryonic 3T3-L1 cells, which are progenitor cells of adipocytes and were used in the present test, were induced to differentiate to form adipocytes. The present test was carried out in accordance with a method described in "Effects of Quercetin Glucosides on Dietinduced Obesity in Mice - The Lipolytic Activity of Quercetin -" (Tateishi et al., Japanese Pharmacology & Therapeutics 2009; 37(2): 123-131). The specific testing method of the present test and the results of the test are shown in the following.
In the present test, first, 3T3-L1 cells were suspended in Dulbecco's Modified Eagle medium (manufactured by FUJIFILM Wako Pure Chemical Corporation) (hereinafter, also referred to as "DMEM medium") to which penicillin-streptomycin (manufactured by Thermo Fisher Scientific, Inc.) and fetal bovine serum (manufactured by Sigma-Aldrich Co. LLC) had been added to reach concentrations of 100 Unit/mL, 100 µg/mL, and 10%, respectively, and seeded in a 12-well plate.
The 3T3-L1 cells were cultured under conditions of 5% CO2 and 37°C until the cells became confluent (a state in which cells are totally covering the surface of a culture vessel). Two days after becoming confluent, the medium was exchanged with a medium obtained by adding dexamethasone (manufactured by NACALAI TESQUE, INC.), 3-isobutyl-1-methylxanthine (manufactured by NACALAI TESQUE, INC.), and insulin (manufactured by NACALAI TESQUE, INC.) to DMEM medium to reach concentrations of 0.25 µM, 0.5 mM, and 10 µg/mL, respectively. Thereafter, the 3T3-L1 cells were cultured at 5% CO2 and 37°C for 2 days to induce the cells to differentiate into adipocytes.
After the induction of differentiation, medium exchange with a medium obtained by adding insulin to DMEM medium to reach a concentration of 5 µg/mL was performed every 2 or 3 days, and differentiation was maintained by culturing at 5% CO2 and 37°C for 12 days in total. Thereafter, a medium is prepared as a test medium by adding penicillin-streptomycin (manufactured by Thermo Fisher Scientific, Inc.) and fetal bovine serum (manufactured by Sigma-Aldrich Co. LLC) to DMEM medium free of phenol red (1.0 g/L glucose) (manufactured by NACALAI TESQUE, INC.) to reach concentrations of 100 Unit/mL, 100 µg/mL, and 10%, respectively, and components shown in Table 4 were added to the test medium to reach concentrations shown in Table 4. The medium for the 3T3-L1 cells after induction of differentiation was exchanged with a medium to which components of any of Comparative Examples 4, 5 or Examples 6 to 8 had been added, and the 3T3-L1 cells were cultured at 5% CO2 and 37°C for 2 days.
Ethyl caproate manufactured by Tokyo Chemical Industry Co., Ltd. was used for the ethyl caproate, ethanol manufactured by FUJIFILM Wako Pure Chemical Corporation was used for the ethanol, and noradrenaline manufactured by NACALAI TESQUE, INC. was used for the noradrenaline.
After culturing for 2 days, the culture supernatant was collected, and glycerol released into the culture supernatant was quantified with a Glycerol Assay kit (Cell-Based) (manufactured by Abcam). The ratio of the amount of glycerol in each medium to which the components of any of Comparative Example 5 and Examples 6 to 8 had been added relative to the amount of glycerol in the medium to which the component of Comparative Example 4 had been added (hereinafter, referred to as "control ratio") was determined to obtain the average ± standard error.
In the present test, statistical test was carried out by multiple comparison test with one-way analysis of variance (one-way ANOVA) followed by Dunnett's test. Significance levels of p < 0.05 were each determined to be a significant difference. These analyses were all performed with SPSS version 23 (manufactured by SPSS).

TRPA1 = target: T1, TRPA1 (Homo sapiens, UniProt O75762); assay: Test 5: TRPA1 activity test, calcium imaging in cells with forced expression of TRPA1; assay type: cell-based
T1 construct: expressed in transfected cells; host or cells: HEK293T cells, transient transfection with Lipofectamine 2000
Method: In the present test, the contribution of the lipid metabolism promoter of the present embodiment to TRPA1 activity was examined by checking the activation of the temperature-sensitive ion channel TRPA1 with a calcium imaging method. The specific testing method of the present test and the results of the test are shown in the following. […]
(§1) Ethyl caproate was added to HEPES buffer (10 mM HEPES, 130 mM NaCl, 5 mM KCl, 10 mM glucose, 2 mM CaCl2·2H2O, 1.2 mM MgCl2·6H2O, pH = 7.40), and thus a test solution of Example 9 containing ethyl caproate in a concentration of 255 ppm was obtained. […] Measurement of fluorescence intensity for the cells with forced expression of TRPA1 was initiated, and, 20 seconds thereafter, 50-µL portions of each of the test solutions prepared were added to three wells. After the lapse of a predetermined period of time, the measurement of fluorescence intensity was completed, and ratios of fluorescence intensity at each time after addition of a test solution as the average of fluorescence intensity before addition of a test solution was assumed as 1 (hereinafter, also referred to as "RFU (relative fluorescence units)") were determined from measurements of fluorescence intensity. Further, change rates in RFU before and after addition of a test solution (hereinafter, also referred to as "ΔRFU") were determined at each time after addition of a test solution. […]

[1] = test system: HEK293T cells without transfer of the TRPA1 gene; assay: Test 5: TRPA1 activity test, reference in non-transformed cells; assay type: cell-based, human; settings: ethyl caproate 255 ppm test solution, 100 ppm in well
Method: In the present test, first, human embryonic HEK293T cells were first suspended in DMEM medium to which penicillin-streptomycin (manufactured by Thermo Fisher Scientific, Inc.) and fetal bovine serum (manufactured by Sigma-Aldrich Co. LLC) were added to reach concentrations of 100 Unit/mL, 100 µg/mL, and 10%, respectively, seeded in a 96-well plate at a volume of 100 µL/well, and cultured under conditions of 5% CO2 and 37°C until a cell density reached 70 to 90%.
as §1, with “intensity.” for “intensity. Further, change rates in RFU before and after addition of a test solution (hereinafter, also referred to as "ΔRFU") were determined at each time after addition of a test solution.”

T1 sequence (O75762 whole entry): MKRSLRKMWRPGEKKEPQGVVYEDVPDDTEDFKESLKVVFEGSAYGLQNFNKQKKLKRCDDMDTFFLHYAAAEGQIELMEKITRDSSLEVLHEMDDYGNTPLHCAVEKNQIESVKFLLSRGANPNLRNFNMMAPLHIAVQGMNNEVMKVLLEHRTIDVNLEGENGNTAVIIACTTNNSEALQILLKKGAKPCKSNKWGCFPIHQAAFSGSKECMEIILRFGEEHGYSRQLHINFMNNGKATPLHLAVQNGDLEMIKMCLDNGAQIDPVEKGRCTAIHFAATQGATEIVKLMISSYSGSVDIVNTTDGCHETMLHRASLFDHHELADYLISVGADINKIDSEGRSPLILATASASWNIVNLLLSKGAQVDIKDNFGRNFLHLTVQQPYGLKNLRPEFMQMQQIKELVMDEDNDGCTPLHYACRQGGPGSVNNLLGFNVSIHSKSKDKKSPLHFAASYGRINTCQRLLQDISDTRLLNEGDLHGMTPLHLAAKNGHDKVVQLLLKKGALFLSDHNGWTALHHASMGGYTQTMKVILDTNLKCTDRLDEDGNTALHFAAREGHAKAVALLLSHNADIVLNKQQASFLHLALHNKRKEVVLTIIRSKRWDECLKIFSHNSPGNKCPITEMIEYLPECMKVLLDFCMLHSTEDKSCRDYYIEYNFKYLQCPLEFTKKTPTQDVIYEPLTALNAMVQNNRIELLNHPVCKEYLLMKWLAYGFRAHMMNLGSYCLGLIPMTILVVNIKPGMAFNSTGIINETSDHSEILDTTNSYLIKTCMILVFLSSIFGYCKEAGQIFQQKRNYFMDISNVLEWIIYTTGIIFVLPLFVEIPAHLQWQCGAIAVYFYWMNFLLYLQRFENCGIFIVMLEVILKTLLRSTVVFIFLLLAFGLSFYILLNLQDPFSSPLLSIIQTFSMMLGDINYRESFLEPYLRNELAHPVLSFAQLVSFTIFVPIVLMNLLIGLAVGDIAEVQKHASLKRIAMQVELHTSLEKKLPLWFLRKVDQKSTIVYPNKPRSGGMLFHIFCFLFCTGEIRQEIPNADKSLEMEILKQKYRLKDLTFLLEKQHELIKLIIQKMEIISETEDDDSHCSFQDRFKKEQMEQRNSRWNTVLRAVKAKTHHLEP

Compound: NC[C@H](O)c1ccc(O)c(O)c1 [Comparative Example 5, Noradrenaline, reference compound]
- amount of released glycerol, comparison with control (3T3-L1 cells): almost no difference in the amount of released glycerol
- control ratio: amount of glycerol relative to medium of Comparative Example 4, Average (3T3-L1 cells): 1.002

Compound: CCCCCC(=O)OCC [Example 8, Ethyl caproate]
- amount of released glycerol, comparison with control (3T3-L1 cells): significant increase in the amount of released glycerol
- control ratio: amount of glycerol relative to medium of Comparative Example 4, Average (3T3-L1 cells): 1.118

Compound: CCCCCC(=O)OCC [Example 7, Ethyl caproate]
- amount of released glycerol, comparison with control (3T3-L1 cells): increasing tendency in the amount of released glycerol
- control ratio: amount of glycerol relative to medium of Comparative Example 4, Average (3T3-L1 cells): 1.089

Compound: CCCCCC(=O)OCC [Example 9, Ethyl caproate]
- cellular response after co-addition of the TRPA1 inhibitor HC03001 (TRPA1; cells with forced expression of TRPA1, Figure 11): disappeared
- cellular response of cells with forced expression of TRPA1 (TRPA1; ethyl caproate 100 ppm in well, Figures 9 and 10): evoked cellular response
- maximum value of ΔRFU after addition of test solution, Average [1]: 0.046

Compound: CCCCCC(=O)OCC [Example 6, Ethyl caproate]
- control ratio: amount of glycerol relative to medium of Comparative Example 4, Average (3T3-L1 cells): 1.063
